From PMC8821558, “Cryo-EM structures of human bradykinin receptor-Gq proteins complexes” (Nature Communications, 2022)

Experiments:
B2R S289A = biological target: T1, B2R S289A (Homo sapiens, UniProt P30411, S289A); test: Calcium mobilization, CHO cells, B2R S289A; assay type: cell-based
T1 construct: expressed in transfected cells; host or cells: CHO cells
Experimental: (§1) CHO cells transfected with wild-type or mutated B2R and wild-type or mutated Gq were seeded into 96-well black plates at a density of 30,000 cells per well and incubated for 24 h. Then cells were loaded with reagents from Calcium-5 Assay Kit (Molecular Devices) for 45 min at 37 °C in 5% CO2 according to the manufacturer’s protocol. […] Data were analyzed by GraphPad Prism 5 and presented as Mean ± S.E.M. from three independent experiments.
(§2) Supplementary Table 3. […] Emax and
(§3) pEC50 values were presented as Mean±S.E.M. from three independent experiments.
(§4) NA represented not available. Source data are provided as a Source Data file.

B2R Y201A = biological target: T2, B2R Y201A (Homo sapiens, UniProt P30411, Y201A); test: Calcium mobilization, CHO cells, B2R Y201A; assay type: cell-based
T2 construct: expressed in transfected cells; host or cells: CHO cells
Experimental: as §1, §2, §3, §4

B2R F121A = biological target: T3, B2R F121A (Homo sapiens, UniProt P30411, F121A); test: Calcium mobilization, CHO cells, B2R F121A; assay type: cell-based
T3 construct: expressed in transfected cells; host or cells: CHO cells
Experimental: as §1, §2, §3, §4

B2R R297A = biological target: T4, B2R R297A (Homo sapiens, UniProt P30411, R297A); test: Calcium mobilization, CHO cells, B2R R297A; assay type: cell-based
T4 construct: expressed in transfected cells; host or cells: CHO cells
Experimental: as §1, §2, §3, §4

B2R T290A = biological target: T5, B2R T290A (Homo sapiens, UniProt P30411, T290A); test: Calcium mobilization, CHO cells, B2R T290A; assay type: cell-based
T5 construct: expressed in transfected cells; host or cells: CHO cells
Experimental: as §1, §2, §3, §4

[1] = biological target: T6, wild-type human B2R with wild-type Gq (Homo sapiens, UniProt P30411); test: Calcium mobilization, CHO cells, WT-B2R & WT-Gq (Calcium-5 kit, Flexstation 3, ex 485/em 525 nm); assay type: cell-based; settings: kallidin-induced calcium mobilization, Mean±S.E.M. from three independent experiments
T6 construct: expressed in transfected cells; host or cells: CHO cells
T6 sequence (P50148 whole entry partner, one chain of several): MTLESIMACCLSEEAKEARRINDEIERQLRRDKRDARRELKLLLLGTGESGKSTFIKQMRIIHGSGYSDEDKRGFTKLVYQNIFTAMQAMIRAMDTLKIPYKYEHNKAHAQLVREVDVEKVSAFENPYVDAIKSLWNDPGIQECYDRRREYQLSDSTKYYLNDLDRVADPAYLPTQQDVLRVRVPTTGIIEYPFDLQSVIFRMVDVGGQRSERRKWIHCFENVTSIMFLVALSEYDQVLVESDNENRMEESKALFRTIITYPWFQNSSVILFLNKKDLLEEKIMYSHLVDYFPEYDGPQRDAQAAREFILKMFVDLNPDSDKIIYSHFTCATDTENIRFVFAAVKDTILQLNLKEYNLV
T6 sequence (P62873 2-340 partner limits assumed, one chain of several): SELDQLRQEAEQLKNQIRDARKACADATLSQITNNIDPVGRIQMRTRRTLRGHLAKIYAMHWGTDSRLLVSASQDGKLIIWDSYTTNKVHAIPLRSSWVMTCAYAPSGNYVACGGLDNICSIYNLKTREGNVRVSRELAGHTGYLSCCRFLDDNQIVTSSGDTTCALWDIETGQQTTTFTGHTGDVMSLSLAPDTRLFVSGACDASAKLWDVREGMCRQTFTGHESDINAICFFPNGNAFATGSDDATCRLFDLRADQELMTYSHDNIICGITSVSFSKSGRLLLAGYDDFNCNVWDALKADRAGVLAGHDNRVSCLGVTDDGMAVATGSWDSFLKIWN
T6 sequence (P59768 2-68 partner limits assumed, one chain of several): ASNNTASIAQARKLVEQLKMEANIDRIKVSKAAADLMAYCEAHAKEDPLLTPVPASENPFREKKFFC
Experimental: as §1
Supplementary Table 1 . Calcium mobilization results of WT and mutated constructs. Emax and pEC50 values were presented as Mean±S.E.M. from three independent experiments. Source data are provided as a Source Data file.
Supplementary Table 3. […] Emax and […]
as §3, §4

B2R I213A = biological target: T7, B2R I213A (Homo sapiens, UniProt P30411, I213A); test: Calcium mobilization, CHO cells, B2R I213A; assay type: cell-based
T7 construct: expressed in transfected cells; host or cells: CHO cells
Experimental: as §1, §2, §3, §4

[2] = biological target: T8, CryoEM B2R (MBP fusion) with CryoEM Gq (R183Q, Q209L) (Homo sapiens, UniProt P30411); test: Calcium mobilization, CHO cells, CryoEM-B2R & CryoEM-Gq; assay type: cell-based; settings: kallidin-induced calcium mobilization, Mean±S.E.M. from three independent experiments
T8 construct: HA tag (N); 10xHis tag + TEV site (N); expressed in transfected cells; host or cells: CHO cells
T8 sequence (P30411 29-391): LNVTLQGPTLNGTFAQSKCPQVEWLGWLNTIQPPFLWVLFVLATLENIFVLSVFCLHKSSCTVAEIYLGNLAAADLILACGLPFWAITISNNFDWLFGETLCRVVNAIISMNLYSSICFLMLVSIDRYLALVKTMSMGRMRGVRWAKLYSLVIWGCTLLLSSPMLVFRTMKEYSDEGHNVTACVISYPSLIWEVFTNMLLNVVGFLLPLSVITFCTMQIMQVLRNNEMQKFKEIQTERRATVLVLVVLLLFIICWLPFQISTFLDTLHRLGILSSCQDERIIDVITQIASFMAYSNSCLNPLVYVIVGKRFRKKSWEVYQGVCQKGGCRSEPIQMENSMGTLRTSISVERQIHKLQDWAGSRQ
T8 sequence (P50148 1-359 R183Q/Q209L partner): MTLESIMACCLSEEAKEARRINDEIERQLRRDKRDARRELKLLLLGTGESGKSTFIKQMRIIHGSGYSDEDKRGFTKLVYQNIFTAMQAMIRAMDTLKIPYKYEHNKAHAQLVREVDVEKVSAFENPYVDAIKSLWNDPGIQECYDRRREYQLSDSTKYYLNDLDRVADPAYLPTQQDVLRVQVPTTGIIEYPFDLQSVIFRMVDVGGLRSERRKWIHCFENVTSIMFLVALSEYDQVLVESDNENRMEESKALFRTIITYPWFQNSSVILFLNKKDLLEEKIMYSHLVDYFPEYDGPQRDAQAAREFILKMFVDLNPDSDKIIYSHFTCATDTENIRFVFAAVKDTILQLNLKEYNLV
Experimental: (§5) There was a 10xHis tag at the N-terminus of each subunit.
as §1
(§6) Supplementary Table 1 . Calcium mobilization results of WT and mutated
(§7) constructs. Emax and pEC50 values were presented as Mean±S.E.M. from three
(§8) independent experiments. Source data are provided as a Source Data file.

B2R D311A = biological target: T9, B2R D311A (Homo sapiens, UniProt P30411, D311A); test: Calcium mobilization, CHO cells, B2R D311A; assay type: cell-based
T9 construct: expressed in transfected cells; host or cells: CHO cells
T9 sequence (P30411 whole entry D311A): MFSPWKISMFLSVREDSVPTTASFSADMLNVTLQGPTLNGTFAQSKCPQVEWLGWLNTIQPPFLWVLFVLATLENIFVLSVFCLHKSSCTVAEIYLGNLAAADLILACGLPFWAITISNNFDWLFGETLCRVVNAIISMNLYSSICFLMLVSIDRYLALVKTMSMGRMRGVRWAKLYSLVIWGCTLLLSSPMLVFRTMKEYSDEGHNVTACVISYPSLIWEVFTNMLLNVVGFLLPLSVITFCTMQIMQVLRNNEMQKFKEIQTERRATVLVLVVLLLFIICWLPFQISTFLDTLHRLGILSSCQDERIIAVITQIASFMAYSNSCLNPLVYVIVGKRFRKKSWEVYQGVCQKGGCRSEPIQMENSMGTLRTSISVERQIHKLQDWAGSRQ
T9 sequence (P50148 whole entry partner): as the sequence (P50148 whole entry partner, one chain of several) above
T9 sequence (P62873 2-340 partner limits assumed): as the sequence (P62873 2-340 partner limits assumed, one chain of several) above
T9 sequence (P59768 2-68 partner limits assumed): as the sequence (P59768 2-68 partner limits assumed, one chain of several) above
Experimental: as §1, §2, §3, §4

B2R Q315A = biological target: T10, B2R Q315A (Homo sapiens, UniProt P30411, Q315A); test: Calcium mobilization, CHO cells, B2R Q315A; assay type: cell-based
T10 construct: expressed in transfected cells; host or cells: CHO cells
Experimental: as §1, §2, §3, §4

B2R W113A = biological target: T11, B2R W113A (Homo sapiens, UniProt P30411, W113A); test: Calcium mobilization, CHO cells, B2R W113A; assay type: cell-based
T11 construct: expressed in transfected cells; host or cells: CHO cells
Experimental: as §1, §2, §3, §4

B2R E204A = biological target: T12, B2R E204A (Homo sapiens, UniProt P30411, E204A); test: Calcium mobilization, CHO cells, B2R E204A; assay type: cell-based
T12 construct: expressed in transfected cells; host or cells: CHO cells
Experimental: as §1, §2, §3, §4

[3] = biological target: T13, wild-type human B2R with CryoEM Gq (R183Q, Q209L) (Homo sapiens, UniProt P30411); test: Calcium mobilization, CHO cells, WT-B2R & CryoEM-Gq; assay type: cell-based; settings: kallidin-induced calcium mobilization, Mean±S.E.M. from three independent experiments
T13 construct: expressed in transfected cells; host or cells: CHO cells
T13 sequence (P30411 1-391): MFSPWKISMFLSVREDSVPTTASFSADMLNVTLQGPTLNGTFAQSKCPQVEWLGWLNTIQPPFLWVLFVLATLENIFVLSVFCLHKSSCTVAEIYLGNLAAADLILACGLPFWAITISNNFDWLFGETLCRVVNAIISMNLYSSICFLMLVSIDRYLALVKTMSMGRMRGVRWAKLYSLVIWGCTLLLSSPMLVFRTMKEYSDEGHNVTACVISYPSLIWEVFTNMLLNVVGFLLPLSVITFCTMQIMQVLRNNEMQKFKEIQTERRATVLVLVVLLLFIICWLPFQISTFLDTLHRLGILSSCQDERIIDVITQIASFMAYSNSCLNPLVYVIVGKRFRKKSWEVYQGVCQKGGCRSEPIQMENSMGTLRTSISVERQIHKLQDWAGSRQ
Experimental: as §5, §1, §6, §7, §8

B2R Y322A = biological target: T14, B2R Y322A (Homo sapiens, UniProt P30411, Y322A); test: Calcium mobilization, CHO cells, B2R Y322A; assay type: cell-based
T14 construct: expressed in transfected cells; host or cells: CHO cells
T14 sequence (P30411 whole entry Y322A): as the sequence (P30411 whole entry D311A) above, with A311D, Y322A counted along it
T14 sequence (P50148 whole entry partner): as the sequence (P50148 whole entry partner, one chain of several) above
T14 sequence (P62873 2-340 partner limits assumed): as the sequence (P62873 2-340 partner limits assumed, one chain of several) above
T14 sequence (P59768 2-68 partner limits assumed): as the sequence (P59768 2-68 partner limits assumed, one chain of several) above
Experimental: as §1, §2, §3, §4

B2R F286A = biological target: T15, B2R F286A (Homo sapiens, UniProt P30411, F286A); test: Calcium mobilization, CHO cells, B2R F286A; assay type: cell-based
T15 construct: expressed in transfected cells; host or cells: CHO cells
Experimental: as §1, §2, §3, §4

B2R D293A = biological target: T16, B2R D293A (Homo sapiens, UniProt P30411, D293A); test: Calcium mobilization, CHO cells, B2R D293A; assay type: cell-based
T16 construct: expressed in transfected cells; host or cells: CHO cells
T16 sequence (P30411 whole entry D293A): as the sequence (P30411 whole entry D311A) above, with D293A, A311D counted along it
T16 sequence (P50148 whole entry partner): as the sequence (P50148 whole entry partner, one chain of several) above
T16 sequence (P62873 2-340 partner limits assumed): as the sequence (P62873 2-340 partner limits assumed, one chain of several) above
T16 sequence (P59768 2-68 partner limits assumed): as the sequence (P59768 2-68 partner limits assumed, one chain of several) above
Experimental: as §1, §2, §3, §4

B2R = settings: cited from earlier work
From the text: The kallikrein-kinin system (KKS) consists of kininogens, kallikrein enzymes, kinins, type 1 and type 2 bradykinin receptors (B1R and B2R), which plays important roles in vasodilation, inflammation, vascular permeability, cardioprotection, coagulation, and pain[1]–[4]. Kinins are short-lived peptides of various lengths and they are produced by enzymatic hydrolysis of precursor kininogens. […] Both kinins ...

## NCCCC[C@H](N)C(=O)N[C@@H](CCCN=C(N)N)C(=O)N1CCC[C@H]1C(=O)N1CCC[C@H]1C(=O)NCC(=O)N[C@@H](Cc1ccccc1)C(=O)N[C@@H](CO)C(=O)N1CCC[C@H]1C(=O)N[C@@H](Cc1ccccc1)C(=O)N[C@@H](CCCN=C(N)N)C(=O)O [kallidin]
B2R S289A
  EC50: 0.00138 µM
B2R Y201A
  EC50: 0.0929 µM
B2R F121A
  EC50: 0.774 µM
B2R R297A
  EC50: 0.00162 µM
B2R T290A
  EC50: 0.0237 µM
[1]
  EC50: 0.000753 µM
B2R I213A
  EC50: 0.11 µM
[2]
  EC50: 0.00667 µM
B2R D311A
  EC50: 0.0167 µM
B2R Q315A
  EC50: 0.0667 µM
B2R W113A
  EC50: 1.05 µM
B2R E204A
  EC50: 0.013 µM
[3]
  EC50: 0.00239 µM
B2R Y322A
  EC50: 0.0215 µM
B2R F286A
  EC50: 0.112 µM
B2R D293A
  EC50: 0.00538 µM

## D-Arg-Arg-Pro-Hyp-Gly-Thi-Ser-D-Tic-Oic-Arg [icatibant]
B2R
  antagonist class at B2R: B2R selective antagonist
